# Measurements from patent US9345703B2, “Kappa opioid receptor effectors and uses thereof” (University of Kansas, priority 2011, dated 2016).
# How the values were obtained:
# KOR [1] = molecular target: T1, KOR (Homo sapiens, UniProt P41145); assay: High content imaging β-arrestin translocation assay, KOR antagonist (KOR HCS); type: cell-based
# Description: (§1) In this campaign, two assay platforms were employed to evaluate KOR activity and selectivity: the KOR1 DISCOVERX β-Arrestin […] assay and an imaging based β-arrestin translocation assay for confirmatory and selectivity assays. The KOR1 DISCOVERX β-Arrestin […] assay is a commercial platform for direct measurement of GPCR (G protein-coupled receptor) activation by detection of β-Arrestin binding to the KOR. […] In cells that stably express these fusion proteins, ligand stimulation results in the recruitment of β-Arrestin by the GPCR. This interaction encourages the complementation of the two β-galactosidase fragments resulting in the formation of a functional enzyme that converts substrate in the assay medium to a detectable signal. The imaging based high-content β-arrestin translocation assay is based upon the redistribution of β-Arrestin linked to green fluorescent protein (GFP) to the cell surface and detection (Barak, et al. (1997) J. Biol. Chem. 272:27497-27500).
# (§2) Initially, a portion (approximately 290,000 compounds) of the MLSMR compound collection was tested in the KOR1 DISCOVERX β-arrestin primary kappa opioid (KOP) agonist and antagonist screens (PUBCHEM AID 1777 and 1778, respectively) at a single concentration point (10 μM). […] These compounds were concurrently tested in a β-galactosidase counterscreen assay (PUBCHEM AID 1966) to assess the possibility that these compounds might inhibit the reporting enzyme. […] The KOR:DOR:MOR selectivity of the compounds was determined using the analogous β-arrestin translocation assays for the DOR (PUBCHEM AID 2370 and 2357, for agonists and antagonist, respectively) and the MOR (PUBCHEM AID 2352 and 2420, for agonists and antagonists, respectively).
# KOR [2] = molecular target: T1, KOR; assay: KOR1 DISCOVERX β-Arrestin […] assay, antagonist mode (KOR DRX); type: cell-based
# Description: as §1, §2
# DOR = DOR (Homo sapiens, UniProt P41143); assay: High content imaging β-arrestin translocation assay, DOR antagonist (DOR HCS); type: cell-based; conditions: antagonist; average; read-out: Potency, Antitarget DOR HCS
# Description: as §1, §2
# MOR [3] = molecular target: T2, MOR (Homo sapiens, UniProt P35372); assay: High content imaging β-arrestin translocation assay, MOR antagonist (MOR HCS); type: cell-based; conditions: antagonist; average; read-out: Potency, Antitarget MOR HCS
# Description: as §1, §2
# KOR [4] = molecular target: T1, KOR; assay: Binding affinity Ki of Table 9
# MOR [5] = molecular target: T2, MOR; assay: High content imaging based β-arrestin translocation assay, MOR agonist (MOR HCS); type: cell-based; conditions: n = 2, read-out: Average Potency MOR HCS
# Description: as §1, §2
# KOR [6] = molecular target: T1, KOR; assay: DISCOVERX β-arrestin […] assay, agonist mode (KOR DRx); type: cell-based; conditions: for EC50: agonist, n = 3, read-out: Average Potency KOR DRx; for Emax (%): at highest concentration tested, compared to dynorphin A (Emax=100%)
# Description: as §1, with “signal.” for “signal. The imaging based high-content β-arrestin translocation assay is based upon the redistribution of β-Arrestin linked to green fluorescent protein (GFP) to the cell surface and detection (Barak, et al. (1997) J. Biol. Chem. 272:27497-27500).”
# KOR [7] = molecular target: T1, KOR; assay: High content imaging based β-arrestin translocation assay, KOR agonist (KOR HCS); type: cell-based; conditions: n = 2, read-out: Average Potency KOR HCS
# Description: as §1, §2
# [8] = antagonist, average, read-out: Potency, Target KOR HCS
# [9] = antagonist, average, read-out: Potency, Target KOR DRX
# T2 sequence (P35372 whole entry): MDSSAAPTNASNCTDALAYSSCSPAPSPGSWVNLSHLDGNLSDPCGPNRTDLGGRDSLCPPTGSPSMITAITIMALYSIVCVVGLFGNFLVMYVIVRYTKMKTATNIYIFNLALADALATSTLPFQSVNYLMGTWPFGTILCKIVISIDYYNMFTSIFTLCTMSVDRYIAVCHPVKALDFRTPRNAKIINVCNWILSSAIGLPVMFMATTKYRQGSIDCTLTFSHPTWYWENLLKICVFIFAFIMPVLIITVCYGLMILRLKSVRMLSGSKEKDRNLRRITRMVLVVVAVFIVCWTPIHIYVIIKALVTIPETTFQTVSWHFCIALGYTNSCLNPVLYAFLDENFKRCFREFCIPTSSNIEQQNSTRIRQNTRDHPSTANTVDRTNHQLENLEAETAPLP
# Chain of DOR (P41143 whole entry): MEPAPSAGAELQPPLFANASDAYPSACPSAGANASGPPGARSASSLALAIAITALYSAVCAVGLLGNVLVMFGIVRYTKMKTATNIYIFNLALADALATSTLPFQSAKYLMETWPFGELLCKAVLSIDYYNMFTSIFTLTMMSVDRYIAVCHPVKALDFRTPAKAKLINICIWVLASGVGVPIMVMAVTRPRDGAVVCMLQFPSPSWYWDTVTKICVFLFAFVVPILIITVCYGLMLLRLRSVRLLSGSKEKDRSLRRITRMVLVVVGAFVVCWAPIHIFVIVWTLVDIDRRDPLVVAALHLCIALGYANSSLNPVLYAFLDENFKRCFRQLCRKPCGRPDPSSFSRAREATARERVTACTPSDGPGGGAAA
# T1 sequence (P41145 whole entry, the tested form may be a part): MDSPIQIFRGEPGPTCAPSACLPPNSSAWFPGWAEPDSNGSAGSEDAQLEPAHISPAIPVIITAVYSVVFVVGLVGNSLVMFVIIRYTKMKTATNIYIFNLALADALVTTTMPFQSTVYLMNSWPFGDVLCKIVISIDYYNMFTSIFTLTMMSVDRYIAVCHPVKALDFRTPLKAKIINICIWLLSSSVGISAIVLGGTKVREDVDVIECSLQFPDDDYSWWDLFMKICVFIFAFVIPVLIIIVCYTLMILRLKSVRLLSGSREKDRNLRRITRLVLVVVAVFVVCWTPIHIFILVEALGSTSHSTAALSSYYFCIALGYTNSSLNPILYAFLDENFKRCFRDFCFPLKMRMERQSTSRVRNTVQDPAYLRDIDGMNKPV
IC50 (KOR [2]),SMILES,IC50 (KOR [1]; [8]),IC50 (KOR [2]; [9]),IC50 (DOR),IC50 (MOR [3]),IC50 (KOR [1]),Ki (KOR [4]),EC50 (MOR [5]),EC50 (KOR [6]),EC50 (KOR [7]),Emax (%) (KOR [6])
,COc1ccc(N2CCN(CCCNC(=O)Cn3c(=O)c4cccn4c4ccccc43)CC2)cc1 [1{2}],15.3 µM,4.32 µM,> 32 µM,> 32 µM,,,,,,
,COc1ccc(N2CCN(CCCNC(=O)Cn3c(=O)c4cccn4c4c(C)ccnc43)CC2)c(OC)c1 [1{4}],0.004 µM,0.19 µM,> 32 µM,30.9 µM,,,,,,
,Cc1ccnc2c1n1cccc1c(=O)n2CC(=O)NCCCN1CCN(c2ccc3c(c2)OCO3)CC1 [1{5}],0.045 µM,0.43 µM,> 32 µM,17.2 µM,,,,,,
,Cc1ccc(N2CCN(CCCNC(=O)Cn3c(=O)c4cccn4c4c(C)ccnc43)CC2)cc1 [1{7}],2.28 µM,0.88 µM,> 32 µM,> 32 µM,,,,,,
,Cc1ccnc2c1n1cccc1c(=O)n2CC(=O)NCCCN1CCN(c2ccccc2)CC1 [1{8}],2.56 µM,4.95 µM,> 32 µM,22.5 µM,,,,,,
,COc1ccc(N2CCN(CCCNC(=O)Cn3c(=O)c4cccn4c4cccnc43)CC2)c(OC)c1 [1{9}],0.49 µM,2.65 µM,> 32 µM,10.8 µM,,,,,,
,Cc1ccc(N2CCN(CCCNC(=O)Cn3c(=O)c4cccn4c4cccnc43)CC2)cc1 [1{12}],0.89 µM,3.68 µM,> 32 µM,18.8 µM,,,,,,
,COc1ccc(N2CCN(CCCNC(=O)Cn3c(=O)c4cccn4c4cc(Br)cnc43)CC2)cc1 [1{14}],0.69 µM,3.05 µM,> 32 µM,10.3 µM,,,,,,
,COc1ccc(N2CCN(CCCNC(=O)Cn3c(=O)c4cccn4c4cc(Br)cnc43)CC2)c(OC)c1 [1{16}],3.02 µM,2.82 µM,> 32 µM,10.2 µM,,,,,,
,Cc1ccc(Cl)cc1N1CCN(CCCNC(=O)Cn2c(=O)c3cccn3c3cccnc32)CC1 [1{24}],> 32 µM,> 20 µM,> 32 µM,3.98 µM,,,,,,
> 20 µM,Cc1cccc(N2CCN(CCNC(=O)Cn3c(=O)c4cccn4c4cccnc43)CC2)c1C [1{25}],,,> 32 µM,,> 32 µM,,,,,
,COc1ccc(N2CCN(CCNC(=O)Cn3c(=O)c4cccn4c4c(C)ccnc43)CC2)cc1 [1{26}],,,> 32 µM,> 32 µM,> 32 µM,,,,,
,COc1ccc(N2CCN(CCCCNC(=O)Cn3c(=O)c4cccn4c4c(C)ccnc43)CC2)cc1 [1{27}],0.005 µM,1.25 µM,> 32 µM,> 32 µM,,,,,,
,Fc1cccc(F)c1CSc1nnc(-c2ccccn2)n1Cc1ccco1 [2{41}],,,,,,0.055 µM,> 32 µM,> 20 µM,> 32 µM,
,Cc1ccnc2c1n1cccc1c(=O)n2CC(=O)NCCCN1CCN(c2ccc(Cl)cc2)CC1 [Compound 1{6}],0.07 µM,0.69 µM,> 32 µM,> 32 µM,,,,,,
,O=C(Cn1c(=O)c2cccn2c2cccnc21)NCCCN1CCN(c2ccc3c(c2)OCO3)CC1 [Compound 1{10}],0.78 µM,4.23 µM,> 32 µM,> 32 µM,,,,,,
,O=C(Cn1c(=O)c2cccn2c2cccnc21)NCCCN1CCN(c2ccc(Cl)cc2)CC1 [Compound 1{11}],0.096 µM,5.18 µM,> 32 µM,> 32 µM,,,,,,
,O=C(Cn1c(=O)c2cccn2c2cccnc21)NCCCN1CCN(c2ccccc2)CC1 [Compound 1{13}],12.7 µM,> 20 µM,> 32 µM,> 32 µM,,,,,,
,O=C(Cn1c(=O)c2cccn2c2cc(Br)cnc21)NCCCN1CCN(c2ccc(Cl)cc2)CC1 [Compound 1{15}],> 32 µM,> 20 µM,> 32 µM,5.32 µM,,,,,,

IC50 (KOR [2]),SMILES,IC50 (KOR [1]; [8]),IC50 (KOR [2]; [9]),IC50 (DOR),IC50 (MOR [3]),IC50 (KOR [1]),Ki (KOR [4]),EC50 (MOR [5]),EC50 (KOR [6]),EC50 (KOR [7]),Emax (%) (KOR [6])
,O=C(Cn1c(=O)c2cccn2c2cc(Br)cnc21)NCCCN1CCN(c2ccc3c(c2)OCO3)CC1 [Compound 1{17}],0.15 µM,3.11 µM,> 32 µM,> 32 µM,,,,,,
,O=C(Cn1c(=O)c2cccn2c2cccnc21)NCCCN1CCOCC1 [Compound 1{19}],> 32 µM,> 20 µM,> 32 µM,> 32 µM,,,,,,
,CN1CCN(CCCNC(=O)Cn2c(=O)c3cccn3c3cccnc32)CC1 [Compound 1{20}],> 32 µM,> 20 µM,> 32 µM,> 32 µM,,,,,,
,O=C(Cn1c(=O)c2cccn2c2cccnc21)NCCCN1CCCCC1 [Compound 1{21}],> 32 µM,> 20 µM,> 32 µM,> 32 µM,,,,,,
,O=C(Cn1c(=O)c2cccn2c2cccnc21)NCCCN1CCC(Cc2ccccc2)CC1 [Compound 1{22}],,4.78 µM,> 32 µM,> 32 µM,,,,,,
,O=C(Cn1c(=O)c2cccn2c2cccnc21)NCCCN1CCN(Cc2ccccc2)CC1 [Compound 1{23}],21.5 µM,> 20 µM,> 32 µM,> 32 µM,,,,,,
,FC(F)(F)c1cc(CSc2nnc(-c3ccccn3)n2Cc2cccs2)ccc1Cl [Compound 2{11}],,,,,,0.003 µM,> 32 µM,0.43 µM,1.4 µM,~109%
,Cc1ccc(CSc2nnc(-c3ccccn3)n2Cc2ccco2)cc1 [Compound 2{12}],,,,,,0.016 µM,> 32 µM,6.2 ± 1.26 µM,5.21 µM,~150%
,Fc1cc(F)cc(CSc2nnc(-c3ccccn3)n2Cc2cccs2)c1 [Compound 2{17}],,,,,,0.094 µM,> 32 µM,7.2 µM,> 17.8 µM,~150%
,COc1ccc(CSc2nnc(-c3ccccn3)n2Cc2ccco2)cc1 [Compound 2{20}],,,,,,0.028 µM,> 32 µM,7.7 ± 1.47 µM,12.4 µM,~150%
,COc1ccc(CSc2nnc(-c3ccccn3)n2Cc2cccs2)cc1 [Compound 2{21}],,,,,,0.0071 µM,> 32 µM,9.62 ± 1.32 µM,5.98 µM,~130%
,c1ccc(CSc2nnc(-c3ccccn3)n2Cc2ccco2)cc1 [Compound 2{22}],,,,,,0.155 µM,> 32 µM,> 17.9 µM,> 32 µM,Emax not reached
,c1ccc(CSc2nnc(-c3ccccn3)n2Cc2cccs2)cc1 [Compound 2{23}],,,,,,0.138 µM,> 32 µM,13.8 ± 1.18 µM,23.5 µM,~150%
,CC(C)c1ccc(CSc2nnc(-c3ccccn3)n2Cc2cccs2)cc1 [Compound 2{34}],,,,,,0.0023 µM,> 32 µM,3.66 µM,2.2 µM,~100%
,Cc1ccccc1CSc1nnc(-c2ccccn2)n1Cc1ccco1 [Compound 2{35}],,,,,,0.123 µM,> 32 µM,> 18.8 µM,> 30 µM,
,Cc1ccccc1CSc1nnc(-c2ccccn2)n1Cc1cccs1 [Compound 2{36}],,,,,,0.068 µM,> 32 µM,> 16 µM,14.5 µM,
,COc1cccc(CSc2nnc(-c3ccccn3)n2Cc2ccco2)c1 [Compound 2{37}],,,,,,0.067 µM,> 32 µM,> 17.6 µM,> 32 µM,
,Fc1cccc(F)c1CSc1nnc(-c2ccccn2)n1Cc1cccs1 [Compound 2{42}],,,,,,0.078 µM,> 32 µM,> 19 µM,20.9 µM,
,Clc1ccccc1CSc1nnc(-c2ccccn2)n1Cc1ccco1 [Compound 2{47}],,,,,,0.106 µM,> 32 µM,9.07 µM,11.6 µM,
